Legend:
[1] = tested on: Pseudomonas aeruginosa 10145; assay: MIC, two-fold agar dilution; assay type: cell-based; settings: Muller-Hinton agar, 37° C., 20 hours
E. coli TEM1 1193E = assay: MIC, two-fold agar dilution; assay type: cell-based; settings: Muller-Hinton agar, 37° C., 20 hours
[2] = tested on: Citrobacter diversus 2046E; assay: MIC, two-fold agar dilution; assay type: cell-based; settings: Muller-Hinton agar, 37° C., 20 hours
E. coli TEM5 3739E = assay: MIC, two-fold agar dilution; assay type: cell-based; settings: Muller-Hinton agar, 37° C., 20 hours
[3] = tested on: Klebsiella aerogenes K1 + 1082E; assay: MIC, two-fold agar dilution; assay type: cell-based; settings: Muller-Hinton agar, 37° C., 20 hours
E. coli 10536 = assay: MIC, two-fold agar dilution; assay type: cell-based; settings: Muller-Hinton agar, 37° C., 20 hours
[4] = tested on: Streptococcus laecalis 29212A; assay: MIC, two-fold agar dilution; assay type: cell-based; settings: Muller-Hinton agar, 37° C., 20 hours
Proteus vularis 6059A = assay: MIC, two-fold agar dilution; assay type: cell-based; settings: Muller-Hinton agar, 37° C., 20 hours
[5] = tested on: Staphylococcus epidermidis 887E; assay: MIC, two-fold agar dilution; assay type: cell-based; settings: Muller-Hinton agar, 37° C., 20 hours
[6] = tested on: Salmonella typhimurium 14028A; assay: MIC, two-fold agar dilution; assay type: cell-based; settings: Muller-Hinton agar, 37° C., 20 hours
[7] = pharmakinetic variables in SD rats; settings: rat, in vivo, iv, 20 mg/kg
Procedure: The pharmakinetic variables were determined using SD rats (.male.) of a body weight of 230±10g as follows. The "S" compound of each of the Examples was injected to femoral vein of 4-5 rats by 20mg/Kg and then blood was collected from femoral artery in 1, 2.5, 5, 10, 20, 40, 60 and 120 min.

[8] = tested on: Staphylococcus aureus giorgio; assay: MIC, two-fold agar dilution; assay type: cell-based; settings: Muller-Hinton agar, 37° C., 20 hours
E. coli TEM3 3455E = assay: MIC, two-fold agar dilution; assay type: cell-based; settings: Muller-Hinton agar, 37° C., 20 hours
E. coli 851E = assay: MIC, two-fold agar dilution; assay type: cell-based; settings: Muller-Hinton agar, 37° C., 20 hours
[9] = tested on: Pseudomonas aeruginosa 6065; assay: MIC, two-fold agar dilution; assay type: cell-based; settings: Muller-Hinton agar, 37° C., 20 hours
E. coli TEM7 3457E = assay: MIC, two-fold agar dilution; assay type: cell-based; settings: Muller-Hinton agar, 37° C., 20 hours
[10] = tested on: Klebsiella aerogenes SHV-1 1976E; assay: MIC, two-fold agar dilution; assay type: cell-based; settings: Muller-Hinton agar, 37° C., 20 hours
Staphylococcus aureus 77 = assay: MIC, two-fold agar dilution; assay type: cell-based; settings: Muller-Hinton agar, 37° C., 20 hours
[11] = tested on: Staphylococcus aureus 241; assay: MIC, two-fold agar dilution; assay type: cell-based; settings: Muller-Hinton agar, 37° C., 20 hours
[12] = tested on: Enterobacter cloacae IND + VE 1194E; assay: MIC, two-fold agar dilution; assay type: cell-based; settings: Muller-Hinton agar, 37° C., 20 hours
E. coli TEM9 2639E = assay: MIC, two-fold agar dilution; assay type: cell-based; settings: Muller-Hinton agar, 37° C., 20 hours
E. coli 3190Y = assay: MIC, two-fold agar dilution; assay type: cell-based; settings: Muller-Hinton agar, 37° C., 20 hours
[13] = tested on: Acinetobacter calcoaceticus 15473A; assay: MIC, two-fold agar dilution; assay type: cell-based; settings: Muller-Hinton agar, 37° C., 20 hours
[14] = tested on: Staphylococcus aureus 6538P; assay: MIC, two-fold agar dilution; assay type: cell-based; settings: Muller-Hinton agar, 37° C., 20 hours
[15] = tested on: Pseudomonas aeruginosa 1912E; assay: MIC, two-fold agar dilution; assay type: cell-based; settings: Muller-Hinton agar, 37° C., 20 hours
[16] = tested on: Serratia marcescens 1826E; assay: MIC, two-fold agar dilution; assay type: cell-based; settings: Muller-Hinton agar, 37° C., 20 hours
Enterobacter cloacae P99 = assay: MIC, two-fold agar dilution; assay type: cell-based; settings: Muller-Hinton agar, 37° C., 20 hours

| Compound | minimal inhibitory concentration (MIC) [1] | minimal inhibitory concentration (MIC) (E. coli TEM1 1193E) | minimal inhibitory concentration (MIC) [2] | minimal inhibitory concentration (MIC) (E. coli TEM5 3739E) | minimal inhibitory concentration (MIC) [3] | minimal inhibitory concentration (MIC) (E. coli 10536) | minimal inhibitory concentration (MIC) [4] | minimal inhibitory concentration (MIC) (Proteus vularis 6059A) | minimal inhibitory concentration (MIC) [5] | minimal inhibitory concentration (MIC) [6] | minimal inhibitory concentration (MIC) [8] | minimal inhibitory concentration (MIC) (E. coli TEM3 3455E) | minimal inhibitory concentration (MIC) (E. coli 851E) | minimal inhibitory concentration (MIC) [9] | minimal inhibitory concentration (MIC) (E. coli TEM7 3457E) | minimal inhibitory concentration (MIC) [10] | minimal inhibitory concentration (MIC) (Staphylococcus aureus 77) | minimal inhibitory concentration (MIC) [11] | minimal inhibitory concentration (MIC) [12] | minimal inhibitory concentration (MIC) (E. coli TEM9 2639E) | further results |
| --- | --- | --- | --- | --- | --- | --- | --- | --- | --- | --- | --- | --- | --- | --- | --- | --- | --- | --- | --- | --- | --- |
| Nc1cc(N)nc(SCC2=C(C(=O)O)N3C(=O)[C@@H](NC(=O)/C(=N\O[C@H](C(=O)O)c4ccc(O)c(O)c4)c4csc(N)n4)[C@H]3SC2)n1 [Compound I-1S, 7-[(Z)-2-(aminothiazol-4-yl)-2-(α-carboxy-3,4-dihydroxybenzyloxyimino)acetamido]-3-(4,6-diamino-pyrimidine-2-yl) thiomethyl-3-cephem-4-carboxylate] | 0.13 | 0.031 | 0.063 | 0.063 | 0.031 | ≤ 0.008 | 4 | 0.13 | 32 | 0.016 | 1 | 0.016 | 0.031 | 0.25 | ≤ 0.008 | 0.13 | 8 | 64 | 2 | 0.25 | AUC at 2 h [7]: 61600 ng·h/mL; half-life [7]: 62 min; minimal inhibitory concentration (MIC) (E. coli 3190Y): 0.031; minimal inhibitory concentration (MIC) [13]: 0.13; minimal inhibitory concentration (MIC) [14]: 2; minimal inhibitory concentration (MIC) [15]: 0.25; minimal inhibitory concentration (MIC) [16]: 0.25; minimal inhibitory concentration (MIC) (Enterobacter cloacae P99): 16 |
| Cc1c(N)nc(SCC2=C(C(=O)O)N3C(=O)[C@@H](NC(=O)/C(=N\O[C@H](C(=O)O)c4ccc(O)c(O)c4)c4csc(N)n4)[C@H]3SC2)nc1N [Compound I-2S, 7-[(Z)-2-(aminothiazol-4-yl)-2-(α-carboxyl-3,4-dihydroxybenzyloxyimino)acetamido]-3-(4,6-diamino-5-methylpyrimidine-2-yl)thiomethyl-3-cephem-4-carboxylate] | 0.13 | 0.031 | 0.016 | 0.063 | 0.031 | ≤ 0.008 | 4 | 0.13 | 16 | 0.016 | 1 | 0.016 | 0.031 | 0.25 | ≤ 0.008 | 0.13 | 4 | 64 | 4 | 0.25 | AUC at 2 h [7]: 54100 ng·h/mL; half-life [7]: 55 min; minimal inhibitory concentration (MIC) (E. coli 3190Y): 0.063; minimal inhibitory concentration (MIC) [13]: 0.25; minimal inhibitory concentration (MIC) [14]: 1; minimal inhibitory concentration (MIC) [15]: 0.5; minimal inhibitory concentration (MIC) [16]: 0.25; minimal inhibitory concentration (MIC) (Enterobacter cloacae P99): 8 |
| Nc1ccnc(SCC2=C(C(=O)O)N3C(=O)[C@@H](NC(=O)/C(=N\O[C@H](C(=O)O)c4ccc(O)c(O)c4)c4csc(N)n4)[C@H]3SC2)n1 [Compound I-3S, 7-[(Z)-2-(aminothiazol-4-yl)-2-(α-carboxyl-3,4-dihydroxybenzyloxyimino)acetamido]-3-(4-amino-pyrimidine-2-yl) thiomethyl-3-cephem-4-carboxylate] | 0.13 | 0.031 | 0.031 | 0.063 | 0.031 | ≤ 0.008 | 4 | 0.13 | 32 | 0.016 | 1 | 0.016 | 0.063 | 0.5 | 0.063 | 0.13 | 4 | 128 | 2 | 0.25 | AUC at 2 h [7]: 57900 ng·h/mL; half-life [7]: 58 min; minimal inhibitory concentration (MIC) (E. coli 3190Y): 0.031; minimal inhibitory concentration (MIC) [13]: 0.13; minimal inhibitory concentration (MIC) [14]: 2; minimal inhibitory concentration (MIC) [15]: 0.25; minimal inhibitory concentration (MIC) [16]: 0.25; minimal inhibitory concentration (MIC) (Enterobacter cloacae P99): 8 |
| Nc1cc(SCC2=C(C(=O)O)N3C(=O)[C@@H](NC(=O)/C(=N\O[C@@H](C(=O)O)c4ccc(O)c(O)c4)c4csc(N)n4)[C@H]3SC2)ncn1 [Compound I-7R, 7[-(Z)-2-(aminothiazol-4-yl)-2-(α-carboxy-3,4-dihydroxybenzyloxyimino)acetamido]-3-(6-amino-pyrimidine-4-yl)thiomethyl-3cephem-4-carboxylate] | 2 | 0.13 | 0.13 | 0.063 | 0.25 | 0.016 | 4 | 0.25 | 32 | 0.13 | 2 | 0.031 | 0.13 | 4 | 0.031 | 0.25 | 8 | 128 | 4 | 0.25 | minimal inhibitory concentration (MIC) (E. coli 3190Y): 0.063; minimal inhibitory concentration (MIC) [13]: 0.25; minimal inhibitory concentration (MIC) [14]: 2; minimal inhibitory concentration (MIC) [15]: 0.25; minimal inhibitory concentration (MIC) [16]: 0.5; minimal inhibitory concentration (MIC) (Enterobacter cloacae P99): 8 |

From patent publication US5571804A, “Cephalosporin antibiotics” (priority 1993, dated 1996)
